# Source: BindingDB's records for doi:10.1021/jm070851i (Wyeth Research, 2007)
# Molecular target: T1, 3-phosphoinositide-dependent protein kinase 1 (Homo sapiens, UniProt O15530)
# T1 sequence (O15530 whole entry): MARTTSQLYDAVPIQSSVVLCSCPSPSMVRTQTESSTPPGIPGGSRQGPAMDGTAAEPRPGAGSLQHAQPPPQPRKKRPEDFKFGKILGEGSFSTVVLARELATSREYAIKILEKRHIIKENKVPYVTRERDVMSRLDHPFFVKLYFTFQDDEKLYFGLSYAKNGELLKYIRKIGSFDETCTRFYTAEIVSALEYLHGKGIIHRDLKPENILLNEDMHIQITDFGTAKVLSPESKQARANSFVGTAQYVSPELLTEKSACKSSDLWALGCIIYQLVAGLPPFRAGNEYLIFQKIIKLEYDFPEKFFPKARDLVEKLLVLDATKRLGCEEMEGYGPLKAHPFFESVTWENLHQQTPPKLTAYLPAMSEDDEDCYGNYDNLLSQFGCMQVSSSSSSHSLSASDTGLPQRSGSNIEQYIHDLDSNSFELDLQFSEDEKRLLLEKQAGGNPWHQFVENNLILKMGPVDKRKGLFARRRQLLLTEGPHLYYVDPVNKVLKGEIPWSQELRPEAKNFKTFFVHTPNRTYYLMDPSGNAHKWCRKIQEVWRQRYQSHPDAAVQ
# Test: ELISA assay
# Settings: pH 7.4; 23 °C
# Description: A homogeneous in vitro assay based on a LANCE format was first used for high-throughput screening. […] ELISA IC50s were determined by Microsoft Excel data analysis wizard model 63 with the luminescent signal from wells without compound treatment as 100%.
smiles,measurement,value
"COc1cc2c(cc1NCCN1CCOCC1)ncc1c(N)nc3c(C)c(N)ccc3c12 [16-methoxy-6-methyl-15-N-[2-(morpholin-4-yl)ethyl]-8,12-diazatetracyclo[8.8.0.0^{2,7}.0^{13,18}]octadeca-1(10),2(7),3,5,8,11,13,15,17-nonaene-5,9,15-triamine]",IC50,300 nM
